Test results as given in article PMC9668914, “Understanding VPAC receptor family peptide binding and selectivity” (Nature Communications, 2022).
Like-named read-outs stand apart in the source and are kept apart here.

Columns and labels:
Nluc-PAC1R [1] = target: T1, Nluc-PAC1R (Homo sapiens, UniProt P41586); experiment: NanoBRET competition binding, AF568-PACAP27 probe (Fig. 5c); conditions: COS-7, 30 nM AF568-PACAP27, 4 °C, read-out: pIC50, PAC1R competition binding (converted)
T1 construct: A construct containing N-terminal NLuc immediately after the native signal peptide of PAC1R was also generated in pcDNA3.1; expressed in transfected cells; host or cells: COS-7 (transient, PEI; whole cells at 4 °C)
T1 sequence (P41586 21-468): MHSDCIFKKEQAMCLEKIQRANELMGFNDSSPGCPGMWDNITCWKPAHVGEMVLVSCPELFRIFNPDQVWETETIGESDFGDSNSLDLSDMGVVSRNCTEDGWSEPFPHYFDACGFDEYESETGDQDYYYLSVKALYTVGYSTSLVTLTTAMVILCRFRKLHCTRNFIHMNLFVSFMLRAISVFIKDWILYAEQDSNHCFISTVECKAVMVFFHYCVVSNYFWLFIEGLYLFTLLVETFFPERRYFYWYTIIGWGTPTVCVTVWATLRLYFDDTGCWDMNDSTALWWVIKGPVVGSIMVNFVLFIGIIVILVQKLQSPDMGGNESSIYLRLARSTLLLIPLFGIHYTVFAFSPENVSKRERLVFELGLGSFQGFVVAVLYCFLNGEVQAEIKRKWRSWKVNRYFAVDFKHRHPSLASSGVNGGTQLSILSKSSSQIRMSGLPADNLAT
Text: (§1) An HA signal peptide was inserted in place of the native signal peptide of the receptors and a FLAG epitope was incorporated into the receptor N-terminus immediately after the signal peptide. A His tag was fused to C-terminus of the receptor. 3C protease cleavage sites were inserted between both the FLAG and His tags and the receptor. […] The following PAC1R and VPAC1R mutants were also generated using Quikchange mutagenesis: PAC1R C25A, PAC1R C219A, PAC1R C25A/C219A, VPAC1R C37A and VPAC1R C208A. For all PAC1R constructs, we used the PAC1R null (PAC1n) splice variant. A construct containing N-terminal NLuc immediately after the native signal peptide of PAC1R was also generated in pcDNA3.1.
Therefore, the lysine residue at position 21 was replaced with a cysteine residue (^21C) for the facile conjugation of fluorophore via thiol-maleimide click reaction. The resulting target peptide ^21C-PACAP27 (Mutant fragment) with amidated C-terminus was synthesized by standard Fmoc-solid phase peptide synthesis method[43] and purified by Reversed-phase high-performance liquid chromatography (RP-HPLC). […] of Alexa Fluor™ 568F was purchased from ThermoFisher Scientific (Catalog number: A20003). The thiol-maleimide conjugation reaction was carried out by our published protocol. […] The molecular weight of the probe was confirmed by Matrix-Assisted Laser Desorption/Ionization Time-of-Flight Mass Spectrometry (MALDI-TOF MS).
COS-7 cells were plated in 10 cm dishes at approximately 1 million cells/dish. Cells were transfected 24 h later, using 3 μg of Nluc-PAC1R DNA using the method described above and then seeded at a density of 15,000 cells per well in white-bottom 96-well culturplates 24 h prior to assay. On the day of the assay, cell culture media was replaced with BRET buffer (0.1% ovalbumin, 10 mM HEPES, 1x HBSS, pH 7.45) and incubated at 4 °C for two hours. […] After 1.5 h, furimazine (10 μM final concentration) was added to each well and the plate incubated for a further 30 min in the dark at 4 °C before reading. Filtered light emissions were measured at 460±40 nm (donor channel) and at 610-LP nm (long pass) (acceptor channel) using a PHERAstar plate reader (BMG Labtech). The raw NanoBRET ratio was calculated by dividing the luminescence from the acceptor channel by the donor channel. Data were expressed as % AF568-PACAP27 BRET signal in the absence of competing ligand.
(§2) The pharmacological data in figures and tables are reported as mean + standard error of the mean (SEM) with the number of biological replicates indicated in the figure and table legends where “n” represents the number of biological replicates performed. Concentration-response data were analyzed in GraphPad Prism version 9.4.0 using a three-parameter logistic curve to derive pEC50 values for the cyclic AMP accumulation. Competition binding data were analyzed in GraphPad Prism using the one site—Fit log IC50 model to derive pIC50 values. For the cysteine mutagenesis data, comparisons of multiple different groups were performed using one-way analysis of variance (ANOVA), followed by Dunnett’s post-hoc test with the control group being the WT receptor, with significance accepted at p < 0.05. For the chimeric peptide data, comparisons of multiple different groups were performed using one-way ANOVA, followed by Tukey’s post-hoc test, with significance accepted at p < 0.05.

PAC1R = target: T2, PAC1R (Homo sapiens, UniProt P41586); experiment: cAMP accumulation, chimeric peptides (Fig. 5b); assay type: cell-based; conditions: COS-7, three-parameter logistic, read-out: pEC50, PAC1R cAMP (converted)
T2 construct: An HA signal peptide was inserted in place of the native signal peptide of the receptors; HA signal peptide (replaces the native signal peptide) (N); 3C protease cleavage sites (between FLAG and receptor, and between receptor and His) (internal); expressed in transfected cells; host or cells: COS-7 (transient, PEI)
T2 sequence (P41586 21-468): T1 sequence (P41586 21-468)
Text: as §1
COS-7 cells were used for the chimeric peptide and cysteine mutagenesis pharmacological assays due to their lack of endogenous expression of PAC1R and receptor activity-modifying proteins, reported to potentially heterodimerize with PAC1R and VPAC1R[42]. Cells were cultured in Dulbecco’s Modified Eagle’s Medium (DMEM) (Invitrogen) supplemented with 5% v/v heat-inactivated FBS at 37 °C and […] /5% CO2 in a humidified incubator. COS-7 cells were plated in 10 cm dishes at approximately 1 million cells/dish. Cells were transfected 24 h later, with 5 µg of either WT or mutant PAC1R or VPAC1R receptor DNA. DNA and PEI (in a 1:6 ratio) were each diluted in 150 mM NaCl, and then combined and incubated for 10 min, before the mixture was added to the 10 cm dish. The next day, cells were harvested from the 10 cm dishes using Trypsin-Versene (PBS + 0.5 mM EDTA, pH 7.4), and were seeded at a density of 15,000 cells/well into clear 96-well culture plates and incubated overnight at 37 °C in 5% CO2 for cAMP accumulation assay the next day.
The reaction was terminated after 30 min by aspiration of the buffer and addition of 50 μl of ice-cold ethanol. Upon evaporation of ethanol, 75 μl of lysis buffer (5 mM HEPES, 0.1% (w/v) OVA, 0.3% (w/v) Tween20, pH 7.4) was added to the cells. cAMP detection was performed using a LANCE cAMP Detection Kit (PerkinElmer) for the construct validation and cysteine mutagenesis pharmacological assays and cAMP Gs HiRange kit (Cisbio) for the chimeric peptide pharmacological assays. The plates were read using an EnVision plate reader with excitation at 320 nm and emission at 615 nm[45].
as §2

Nluc-PAC1R [2] = target: Nluc-PAC1R (UniProt P41586); experiment: FRET or BRET; NanoBRET whole cell competition binding; COS-7 cells with Nluc-PAC1R, 30 nM AF568-PACAP27 and increasing competing peptide added together, 4 °C, BRET buffer (0.1% ovalbumin, 10 mM HEPES, 1x HBSS, pH 7.45); one site fit of log IC50
GLP-1R = conditions: cited from earlier work
Text: In the equivalent position as R ...

VPAC1R WT, C37A, C208A = experiment: cAMP accumulation, cysteine mutagenesis (Fig. 6d, Supplementary Fig. 13a-c); assay type: cell-based; conditions: for Difference in cAMP potency (pEC50) between WT and mutant VPAC1R: COS-7, mean of n = 3
Description: (§3) Maps are shown in transparent and model backbones are shown in ribbon format. The relevant cysteines are shown as stick models, with the putative disulfide bond present. […] The data for panels d and e are the mean ± SEM, n = 3 independent experiments. Differences in potency between WT and mutant receptors was assessed using a one-way ANOVA and Dunnett’s post-test. […] Interactions are listed by percentage of occupancy of frames, with the background colouring representing maximum occupancy % (red) and minimum occupancy % (white). Receptor residue background colouring is according to their residue numbering (TM transmembrane helix, ECL3 extracellular loop 3). Table is based on data presented in Supplementary Table 4. Source data for panels d and e are provided in the Source Data file.
as §1
(§4) COS-7 cells were used for the chimeric peptide and cysteine mutagenesis pharmacological assays due to their lack of endogenous expression of PAC1R and receptor activity-modifying proteins, reported to potentially heterodimerize with PAC1R and VPAC1R[42]. […] COS-7 cells were plated in 10 cm dishes at approximately 1 million cells/dish. Cells were transfected 24 h later, with 5 µg of either WT or mutant PAC1R or VPAC1R receptor DNA. […]
(§5) The reaction was terminated after 30 min by aspiration of the buffer and addition of 50 μl of ice-cold ethanol. […] The plates were read using an EnVision plate reader with excitation at 320 nm and emission at 615 nm[45].
(§6) The pharmacological data in figures and tables are reported as mean + standard error of the mean (SEM) with the number of biological replicates indicated in the figure and table legends where “n” represents the number of biological replicates performed. Concentration-response data were analyzed in GraphPad Prism version 9.4.0 using a three-parameter logistic curve to derive pEC50 values for the cyclic AMP accumulation. Competition binding data were analyzed in GraphPad Prism using the one site—Fit log IC50 model to derive pIC50 values. […]

M299^PAC1R/D301^PAC1R = conditions: cited from earlier work
Text: Nonetheless, the secondary engagement of the peptide N-terminus with ECL2/ECL3 appeared to coordinate interactions that preceded the movement of the far N-terminal residues deeper into the binding pocket. Unique residues in ECL2 that differ between the V ...

[3] = test system: PAC1R WT, C25A, C219A, C25A/C219A; experiment: cAMP accumulation, cysteine mutagenesis (Fig. 6e, Supplementary Fig. 13d-f); assay type: cell-based; conditions: COS-7, mean of n = 3
Description: as §3, §1, §4, §5, §6

VPAC2R = conditions: cited from earlier work

## CC[C@H](C)[C@H](NC(=O)[C@H](CO)NC(=O)[C@H](CC(N)=O)NC(=O)[C@H](CC(C)C)NC(=O)[C@H](Cc1ccc(O)cc1)NC(=O)[C@H](CCCCN)NC(=O)[C@H](CCCCN)NC(=O)[C@@H](NC(=O)[C@H](C)NC(=O)[C@H](CCSC)NC(=O)[C@H](CCC(N)=O)NC(=O)[C@H](CCCCN)NC(=O)[C@H](CCCN=C(N)N)NC(=O)[C@H](CC(C)C)NC(=O)[C@H](CCCN=C(N)N)NC(=O)[C@@H](NC(=O)[C@H](Cc1ccc(O)cc1)NC(=O)[C@H](CC(N)=O)NC(=O)[C@H](CC(=O)O)NC(=O)[C@@H](NC(=O)[C@H](Cc1ccccc1)NC(=O)[C@@H](NC(=O)[C@H](C)NC(=O)[C@H](CC(=O)O)NC(=O)[C@H](CO)NC(=O)[C@@H](N)Cc1c[nH]cn1)C(C)C)[C@@H](C)O)[C@@H](C)O)C(C)C)C(=O)N[C@@H](CC(C)C)C(=O)N[C@@H](CC(N)=O)C(N)=O [VIP, vasoactive intestinal peptide, reference compound]
Nluc-PAC1R [1]; replicate n=1
  IC50: 4500 nM
Nluc-PAC1R [1]; replicate n=2
  IC50: 8090 nM
Nluc-PAC1R [1]; replicate n=3
  IC50: 12700 nM
Nluc-PAC1R [1]; replicate n=4
  IC50: 15700 nM
Nluc-PAC1R [1]; replicate n=5
  IC50: 7140 nM
PAC1R; replicate n=1
  EC50: 38.5 nM
PAC1R; replicate n=2
  EC50: 30.9 nM
PAC1R; replicate n=3
  EC50: 43.3 nM
PAC1R; replicate n=4
  EC50: 76.4 nM
PAC1R; replicate n=5
  EC50: 104 nM

## Ala4 PACAP27 (peptide)
Nluc-PAC1R [2]
  fold reduction in pIC50 relative to PACAP27: 30 fold

## GLP-1: glucagon-like peptide 1
GLP-1R
  GLP-1 affinity with R380 of GLP-1R switched to the VPAC1R residue: reduced GLP-1 affinity
  GLP-1 potency for cAMP production at GLP-1R D372A, E373A: reduced GLP-1 potency for cAMP production

## PACAP38: PACAP38, a 38 amino acid peptide
VPAC1R WT, C37A, C208A; C37A
  Difference in cAMP potency (pEC50) between WT and mutant VPAC1R: -0.5843
VPAC1R WT, C37A, C208A; C208A
  Difference in cAMP potency (pEC50) between WT and mutant VPAC1R: -0.568
VPAC1R WT, C37A, C208A; VPAC1R and PAC1R single mutants (Fig. 6d, e), only significant for PACAP27 at C37A VPAC1R or C25A PAC1R
  reduction in cAMP potency at single cysteine mutants of either receptor, compared with VIP: much smaller reduction in potency
VPAC1R WT, C37A, C208A; WT
  Difference in cAMP potency (pEC50) between WT and mutant VPAC1R: 0
M299^PAC1R/D301^PAC1R
  PACAP38-mediated cAMP production with alanine mutation of M299/D301 PAC1R: reduced PACAP38-mediated cAMP production
[3]; C25A C219A
  Difference in cAMP potency (pEC50) between WT and mutant PAC1R: -0.4376
[3]; C25A
  Difference in cAMP potency (pEC50) between WT and mutant PAC1R: -0.9347
[3]; C219A
  Difference in cAMP potency (pEC50) between WT and mutant PAC1R: -0.4471
[3]; WT
  Difference in cAMP potency (pEC50) between WT and mutant PAC1R: 0

## pituitary adenylate cyclase-activating polypeptide [PACAP]
VPAC2R
  VPAC2R affinity: high affinity
